{
  "source": "paper PMC12736120",
  "about": "“First-in-Human Phase I Clinical Trial of SLC-391, a Novel and Selective AXL Inhibitor, in Patients with Advanced Solid Tumours” (Pharmaceuticals, 2025)",
  "origin": "cited, not measured here",
  "key": {"TYRO3": {"tested_on": "TYRO3", "details": "stated in the Introduction, no reference given; read-out: IC50 against TYRO3; cited from earlier work"}, "MER": {"tested_on": "MER", "details": "stated in the Introduction, no reference given; read-out: IC50 against MER; cited from earlier work"}},
  "data": [
    {"smiles": "Nc1ncc(-c2cnn(C3CCNCC3)c2)cc1-c1nnc(CC2CC2)o1", "note": "[SLC-391, 3-(5-[cyclopropylmethyl]-1,3,4-oxadiazol-2-yl)-5-(1-[piperidin-4-yl]-1H-pyrazol-4-yl)-pyridin-2-amine]", "values": [
      {"measurement": "IC50", "setting": "TYRO3", "result": 42.3, "unit": "nM"},
      {"measurement": "IC50", "setting": "MER", "result": 44, "unit": "nM"}
    ]}
  ]
}
